Data as given in patent publication US12391685B2, “Inhibitors of RNA-guided nuclease target binding and uses thereof” (THE BROAD INSTITUTE, INC., priority 2018, dated 2025).

These compounds were tested against SpCas9 (Streptococcus pyogenes serotype M1, UniProt Q99ZW2) (assay: eGFP-disruption assay in U2OS.eGFP.PEST cells). Conditions: screen of structural analogs of BRD7087; 15 μM compound, 24 h, U2OS.eGFP.PEST cells.
Assay type: cell-based, S. pyogenes
Parameters: host or cells: U2OS.eGFP.PEST
Description: SpCas9 nuclease activity in eGFP-disruption assay. Approximately 200,000 U2OS.eGFP-PEST cells were nucleofected following two different methods either by nucleofecting plasmids or RNP using the SE Cell Line 4D-Nucleofector™ X Kit (Lonza) according to the manufacturer's protocol. In the plasmid nucleofection method, cells were nucleofected either with 440 ng of SpCas9 (Addgene Plasmid #43861) or 400 ng of SpCas9 along with 40 ng of sgRNA (pFYF1320 eGFP Site #1, Addgene Plasmid #47511). Cells nucleofected only with SpCas9-expressing plasmid were used as the transfection control. In the RNP nucleofection method, either […] SpCas9 or 20 pmol preformed SpCas9:gRNA (eGFP Site #1) complex were nucleofected. Approximately 20,000 transfected cells/well were plated in 4 replicates in a 96-well plate (Corning® 3904). Cells were incubated with the indicated amount of compound or DMSO for 24 h post transfection. A DMSO solution of compound (20 mM) was resuspended in the 10% FBS containing growth media and thoroughly mixed before adding to the cells. Cells were then fixed using 4% paraformaldehyde and imaged with the HCS NuclearMask™ Blue Stain (Life Technologies) as the nuclear counter-staining agent. Imaging was performed with an ImageXpress Micro automated microscope (Molecular Devices) at 10× magnification under three excitation channels (blue, green and red) acquiring nine sites per well. Images were analyzed using MetaXpress software and data were plotted using GraphPad Prism 6.
The Z′-value was calculated using the equation (1), where σ1 and σ2 are the standard deviations of DMSO control and SpCas9:gRNA control respectively. μ1 and μ2 are the mean % GFP^− cell population for DMSO control and SpCas9:gRNA control, respectively.

SpCas9, sequence (Q99ZW2 whole entry): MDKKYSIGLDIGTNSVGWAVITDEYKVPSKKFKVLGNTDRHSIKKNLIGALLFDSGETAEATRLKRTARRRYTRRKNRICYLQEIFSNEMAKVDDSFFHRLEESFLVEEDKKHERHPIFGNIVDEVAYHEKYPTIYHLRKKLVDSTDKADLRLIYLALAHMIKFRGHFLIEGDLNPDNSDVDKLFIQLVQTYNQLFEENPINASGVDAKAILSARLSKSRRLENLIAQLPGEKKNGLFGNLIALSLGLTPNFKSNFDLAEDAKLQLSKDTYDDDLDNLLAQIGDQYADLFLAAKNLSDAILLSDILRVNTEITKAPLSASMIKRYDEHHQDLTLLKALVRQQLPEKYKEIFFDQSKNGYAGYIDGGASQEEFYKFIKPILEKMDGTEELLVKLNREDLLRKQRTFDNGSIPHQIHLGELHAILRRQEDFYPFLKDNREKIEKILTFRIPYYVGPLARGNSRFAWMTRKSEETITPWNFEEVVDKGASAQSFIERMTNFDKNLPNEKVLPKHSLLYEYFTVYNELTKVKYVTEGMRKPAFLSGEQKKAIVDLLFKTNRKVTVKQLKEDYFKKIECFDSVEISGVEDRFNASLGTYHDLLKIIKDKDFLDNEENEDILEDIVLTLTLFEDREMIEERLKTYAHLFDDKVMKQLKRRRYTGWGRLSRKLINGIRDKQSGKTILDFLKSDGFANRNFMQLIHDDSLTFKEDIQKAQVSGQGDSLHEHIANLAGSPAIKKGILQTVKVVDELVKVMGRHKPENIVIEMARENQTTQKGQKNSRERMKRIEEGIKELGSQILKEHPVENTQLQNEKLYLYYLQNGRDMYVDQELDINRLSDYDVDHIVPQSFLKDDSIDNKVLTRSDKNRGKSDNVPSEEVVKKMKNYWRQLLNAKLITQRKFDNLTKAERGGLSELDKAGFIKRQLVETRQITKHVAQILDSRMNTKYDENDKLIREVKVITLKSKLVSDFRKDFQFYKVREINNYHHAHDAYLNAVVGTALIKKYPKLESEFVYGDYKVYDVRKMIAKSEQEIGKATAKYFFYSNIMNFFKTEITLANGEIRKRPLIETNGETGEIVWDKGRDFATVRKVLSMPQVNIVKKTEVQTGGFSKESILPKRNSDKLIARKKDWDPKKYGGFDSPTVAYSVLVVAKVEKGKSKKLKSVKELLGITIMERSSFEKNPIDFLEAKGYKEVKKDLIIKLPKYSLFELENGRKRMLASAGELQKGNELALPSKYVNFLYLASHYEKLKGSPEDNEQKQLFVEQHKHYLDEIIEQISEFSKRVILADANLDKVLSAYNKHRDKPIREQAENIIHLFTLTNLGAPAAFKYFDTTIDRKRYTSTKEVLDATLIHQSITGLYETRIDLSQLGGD

Row | SMILES | Average Inhibition activity | Inhibition activity Rep 1 | Inhibition activity Rep 2
1 | CN1c2ccc(C#Cc3ccccc3)cc2[C@@H]2[C@@H](CCN2S(=O)(=O)c2cn(C)cn2)[C@H]1CO [BRD-A34097118] | 60.1 | 50.1 | 70.1
2 | O=C(CC1CC1)N1CC[C@@H]2[C@H]1c1cc(-c3ccc(F)cc3)ccc1N[C@@H]2CO [BRD-K03427362] | 49.4 | 48.3 | 50.6
3 | COc1cccc(S(=O)(=O)N2CC[C@@H]3[C@H]2c2cc(C#Cc4cccnc4)ccc2N(C)[C@H]3CO)c1 [BRD-K04388421] | 51.2 | 49.1 | 53.3
4 | O=C(Cc1ccccc1)N1CC[C@@H]2[C@H](CO)Nc3ccc(-c4ccc(F)cc4)cc3[C@@H]21 [BRD-K05104277] | 65.0 | 71.6 | 58.4
5 | COCC(=O)N1CC[C@@H]2[C@H](CO)Nc3ccc(C#Cc4cccc(F)c4)cc3[C@@H]21 [BRD-K09759494] | 50.9 | 51.1 | 50.7
6 | Cc1ccccc1S(=O)(=O)N1CC[C@@H]2[C@H](CO)N(C)c3ccc(C#Cc4ccc(F)cc4)cc3[C@@H]21 [BRD-K11385710] | 51.1 | 55.7 | 46.5
7 | COc1cccc(-c2ccc3c(c2)[C@@H]2[C@@H](CCN2C(=O)c2cnccn2)[C@@H](CO)N3)c1 [BRD-K11943259] | 58.8 | 53.0 | 64.6
8 | CN1c2ccc(C#Cc3cccnc3)cc2[C@H]2[C@H](CCN2C(=O)C2CCCCC2)[C@H]1CO [BRD-K11970601] | 54.5 | 59.0 | 50.0
9 | O=S(=O)(c1cccc(F)c1)N1CC[C@@H]2[C@H](CO)Nc3ccc(C#Cc4ccccc4F)cc3[C@@H]21 [BRD-K12807496] | 60.8 | 50.9 | 70.7
10 | O=S(=O)(c1cccc(F)c1)N1CC[C@@H]2[C@H]1c1cc(C#Cc3ccccc3F)ccc1N[C@@H]2CO [BRD-K14474387] | 61.3 | 56.1 | 66.4
11 | COc1ccc(S(=O)(=O)N2CC[C@@H]3[C@@H](CO)N(C)c4ccc(-c5ccc(F)cc5)cc4[C@@H]32)cc1 [BRD-K16827616] | 60.5 | 76.4 | 44.6
12 | COc1ccc(-c2ccc3c(c2)[C@H]2[C@H](CCN2C(=O)Cc2ccncc2)[C@H](CO)N3)cc1 [BRD-K17925790] | 51.7 | 52.6 | 50.8
13 | COc1ccccc1CN1CC[C@@H]2[C@H]1c1cc(C#Cc3ccccc3)ccc1N[C@@H]2CO [BRD-K18260949] | 49.5 | 49.8 | 49.1
14 | CN1c2ccc(C#Cc3cccnc3)cc2[C@@H]2[C@@H](CCN2C(=O)c2cccc(F)c2)[C@@H]1CO [BRD-K18296007] | 64.7 | 69.6 | 59.7
15 | O=C(C1CCCCC1)N1CC[C@@H]2[C@H]1c1cc(Br)ccc1N[C@@H]2CO [BRD-K20055065] | 70.7 | 67.5 | 73.9
16 | COc1ccccc1-c1ccc2c(c1)[C@H]1[C@H](CCN1C(=O)CN1CCOCC1)[C@H](CO)N2C [BRD-K22244182] | 50.3 | 57.2 | 43.4
17 | COc1ccccc1C#Cc1ccc2c(c1)[C@H]1[C@H](CCN1C(=O)CN1CCOCC1)[C@H](CO)N2 [BRD-K26627503] | 56.9 | 47.5 | 66.3
